Results on one compound are retold here after ChEMBL document CHEMBL4359811, “Development of Potent and Selective Pyrazolopyrimidine IRAK4 Inhibitors” (J Med Chem, 2019).

Data set [1] in a line: Cmax in mouse at 30 mg/kg, po. Type of data set: ADME, organism-based. More on the design: dose 30 mg/kg, route oral. Particulars: in vivo.
The nature of data set [2]: Half-life in rat at 1 mg/kg, po. Type of data set: ADME, organism-based. Particulars: in vivo.
The nature of data set [3]: Cmax in mouse at 100 mg/kg, po administered as suspension in MCT. Format: ADME, organism-based. More on the design: dose 100 mg/kg, route oral. Particulars: in vivo.
Data set [4] is described as follows: Oral bioavailability in dog at 1 mg/kg. Type of data set: ADME, organism-based, Canis lupus familiaris. Conditions: in vivo.
A short description of data set [5]: Half-life in mouse at 10 mg/kg, po. Conditions: in vivo. Type of data set: ADME, organism-based.
The nature of data set [6]: AUC (infinity) in mouse at 300 mg/kg, po administered as suspension in 10% captisol. Format: ADME, organism-based. More on the design: dose 300 mg/kg, route oral, time infinity. Particulars: in vivo.
In data set [7] the test system is Mus musculus. Description: In vivo inhibition of IRAK4 in CpG ODN 1826 induced C57BL/6 mouse assessed as blockade of TLR9 signalling by measuring IL-6 levels at 3 mg/kg, po treated 1 hr prior to CpG ODN 1826 stimulation and measured after 1 hr by MSD assay. Type of data set: functional. More on the design: scale not given: the % may be the effect or the level left.

Data set [8] in a line: Oral bioavailability in mouse at 100 mg/kg administered as suspension in 10% captisol. Format: ADME, organism-based. Particulars: in vivo.
Data set [9] can be described thus: Cmax in dog at 1 mg/kg, po. Format: ADME, organism-based, Canis lupus familiaris. Conditions: in vivo. More on the design: dose 1 mg/kg, route oral.
A short description of data set [10]: Cmax in mouse at 10 mg/kg, po. Type of data set: ADME, organism-based. More on the design: dose 10 mg/kg, route oral. Particulars: in vivo.
Data set [11] is described as follows: Half-life in mouse at 100 mg/kg, po administered as suspension in MCT. Format: ADME, organism-based. Particulars: in vivo.
The nature of data set [12]: AUC (infinity) in mouse at 100 mg/kg, po administered as suspension in 10% captisol. Conditions: in vivo. More on the design: dose 100 mg/kg, route oral, time infinity. Format: ADME, organism-based.
Data set [13] in a line: AUC (infinity) in mouse at 10 mg/kg, po. Type of data set: ADME, organism-based. Particulars: in vivo. More on the design: dose 10 mg/kg, route oral, time infinity.
The test system of data set [14] is Mus musculus. Description: In vivo inhibition of IRAK4 in CpG ODN 1826 induced C57BL/6 mouse assessed as blockade of TLR9 signalling by measuring TNFalpha levels at 3 mg/kg, po treated 1 hr prior to CpG ODN 1826 stimulation and measured after 1 hr by MSD assay. More on the design: scale not given: the % may be the effect or the level left. Type of data set: functional.

A short description of data set [15]: Half-life in mouse at 5 mg/kg, po. Format: ADME, organism-based. Particulars: in vivo.

As to `C[C@]1(CO)Cc2cc(NC(=O)c3cnn4cccnc34)c(N3CCOCC3)cc2O1`, the peak concentration (Cmax) (commonly the highest concentration seen after dosing) in data set [1] is 7.2 µM; in data set [3], 4.8 µM; in [9] it was 0.2 µM; in data set [10], 5.4 µM. In addition, the half-life – broadly, how long it takes for the measured level to halve – is 3.8 h in [2], 1.3 h in data set [5], 1.6 h in data set [11] and 0.5 h in data set [15]. In addition, the bioavailability (usually the share of a dose that reaches the circulation, judged against a reference dose that is usually intravenous) came out at 30% in data set [4] and 49% in [8]. The AUC(0-inf) – broadly, total exposure, with the tail of the curve extrapolated – stood at 340 µM·h in [6], 98 µM·h in [12] and 10 µM·h in [13]. Moreover, the Activity with Mus musculus [7] was -27%; with Mus musculus [14], -18%.
